Source: US20220096484A1, “METHODS AND COMPOSITIONS FOR TREATING CANCER BY TARGETING FATP2 AND MYELOID DERIVED SUPPRESSOR CELLS” (The Wistar Institute of Anatomy and Biology, priority 2019, published 2022)

Legend:
[1] = test system: PMN differentiated from HPCs; experiment: PMN generated from HPC in the presence of GM-CSF and arachidonic acid; format: cell-based, mouse
Protocol: Single cells suspensions from spleen and tumors were prepared as described above. Then cells were stained and sorted on BD FACS Aria BD (Biosciences). PMN-MDSC)(CD45^+ CD11b^+Ly6G^+Ly6C^lo and M-MDSC (CD45^+ CD11b^+Ly6G^−Ly6C^hi) were plated in U-bottom 96-well plates (3 replicates) in RPMI with 10% FBS and co-cultured at different ratios with splenocytes from Pmel or OT-1 transgenic mice in the presence of cognate peptides: OT-1 (SIINFEKL; 0.1 ng/ml), Pmel (EGSRNQDWL; 0.1 μg/ml). After 48 h, cells were incubated with [^3H]-thymidine (PerkinElmer) for 16-18 h. Proliferation was measured by using TopCount NXT instrument (PerkinElmer).
RNA was extracted using Total RNA Kit according to manufacturer's instructions. DNase digestion was performed cDNA was generated with High-Capacity cDNA Reverse Transcription Kit (Applied Biosystems, Foster City, Calif., USA). qRT-PCR was performed using Power SYBR Green PCR Master Mix (Applied Biosystems) in 96- or 384 well plates. Plates were read with ABI 7900 (Applied Biosystems).
Mouse neutrophils were generated from enriched bone marrow hematopoietic progenitor cells (HPCs) with 20 ng/ml of GM-CSF. Briefly, HPCs were isolated from mouse BM by using Lineage depletion kit (Miltenyi), according to manufacturer's instructions. Cells were seeded at 25000 cell/ml in 24 well plates and GM-CSF (20 ng/ml), 20% v/v TES or arachidonic acid (10 μM) were added at day 0 and day 3. At day 5, Ly6G positive neutrophils were isolated by using anti-Ly6G biotin (Miltenyi) and streptavidin beads (Miltenyi), according to manufacturer's instructions.
HPCs were isolated from mouse BM by using Lineage depletion kit (Miltenyi), according to manufacturer's instructions. HPC were resuspended in serum-free medium (SFM) containing lentiviral vectors followed by centrifugation of the plate at 1000 rpm for 20 min at 25° C. Fresh media supplemented with GM-CSF (20 ng/ml) was then added and cells were seeded at 25000 cell/ml in 24 well plates. At day 3, GM-CSF and 20% v/v TES were added to the culture. At day 5, cells were collected, stained with PE conjugated anti mouse Ly6G, APC conjugated anti mouse Ly6C and BV421 conjugated anti-mouse CD11b, and GFP^− and GFP^+Ly6G^+ cells were sorted on BD FACS Melody (BD Biosciences). GFP^− and GFP^+Ly6G^+ cells were seeded at 2.000.000 cells/ml in presence of GM-CSF and TES and incubated for further 24 hours. Pellets and supernatants were collected for further analysis. PGE2 concentration in supernatants was measured by using PGE2 ELISA KIT (Invitrogen), according to manufacturer's instructions.

[2] = test system: STAT5 / FATP2 in PMN; experiment: Mouse bone marrow PMN treated with GM-CSF (pSTAT5 flow cytometry, FATP2 Western blot); format: cell-based
Protocol: Cells were lysed in RIPA buffer (Sigma-Aldrich) in presence of protease inhibitor cocktail (Sigma-Aldrich), sonicated and stored at −80° C. Whole cell lysates were prepared and subjected to 10% SDS-PAGE and transferred to PVDF membrane. The membranes were probed overnight at 4° C. with the antibodies specific for FATP2 (SLC27A2) (ThermoFisher), ACTIN, GAPDH, STAT5 (Cell Signaling Technology). Membranes were washed and incubated for 1 h at room temperature with secondary antibody conjugated with peroxidase.
Slc27a2 promoter has a binding site for the transcription factor STAT5 (http://jaspar.genereg.net). STAT5 can be activated by GM-CSF, which plays a critical role in myelopoiesis and expansion of MDSC^23. To explore whether GM-CSF might control slc27a2 expression through STAT5 activation we treated PMN isolated from BM of tumor free mice with GM-CSF for 2 hrs. […] To confirm the role of STAT5 in controlling the expression of slc27a2 in PMN, we crossed Stat5″ mice with S100A8-cre mice to target the deletion of Stat5 to PMN. In the absence of Stat5 in PMN, the tumor growth was slower than in control mice (FIG. 11I). This was associated with lower expression of slc27a2 in PMN (FIG. 11J).

[3] = test system: pSTAT5 / FATP2 in human PMNs; experiment: Human PMN from healthy donors treated with GM-CSF (pSTAT5, FATP2); format: cell-based; conditions: human PMNs from blood of healthy donors
Description: FIG. 12A, Lipid accumulation (measured by BODIPY staining) in M-MDSCs isolated from the blood of patients with cancer or healthy individuals. Each circle indicates an individual. FIG. 12B, Amount of lipids (BODIPY staining) in M-MDSCs from blood and tumor tissue of patients with cancer. Each circle indicates an individual (n=5). FIG. 12C, RNA-seq analysis of genes involved in lipid accumulation in human LOX1^+ PMN-MDSCs and LOX1^− PMNs (n=4). FIG. 12D, PTGES expression in LOX1^+ and LOX1^− PMNs from blood of patients with cancer. Fold change compared with LOX1^− PMNs (n=3). FIG. 12E, SLC27A2 expression in M-MDSCs and monocytes isolated from blood of patients with cancer and healthy donors, respectively. Each circle indicates an individual (n=4-6). Data are mean±s.d. FIG. 12F, pSTAT5 by flow cytometry at different time points, in human PMNs isolated from the blood of healthy donors and treated with different amounts of GM-CSF. FIG. 12G, FATP2 in PMNs isolated from blood of healthy donors and treated with GM-CSF. Representative of three independent experiments. FIG. 12H, Content of total phosphatidylethanolamine (PE) and arachidonoyl-containing phosphatidylethanolamine (AA-PE) in PMN-MDSCs isolated from patients with lung cancer (n=5) or healthy donors (n=4). Each circle indicates an individual. Data are mean±s.d. *P<0.05, **P<0.01, ***P<0.001, ****P<0.0001, unpaired two-sided Student's t-test. […]

[4] = PMN differentiated from HPC in the presence of AA

Molecule | expansion of PMN-MDSC ([1]; HPC with GM-CSF and AA (10 μM)) | suppression of antigen specific T cell responses by the generated PMN ([1]; HPC with GM-CSF and AA (10 μM)) | expression of nox2 [1, 4] | production of PGE2 [1, 4] | FATP2 protein ([2]; PMN from BM of tumor free mice, GM-CSF) | activation of STAT5 (pSTAT5) ([2]; PMN from BM of tumor free mice, GM-CSF for 2 hrs) | expression of FATP2 in Stat5 deficient PMN ([2]; Stat5 deficient PMN, GM-CSF) | FATP2 [3] | pSTAT5 [3]
CCCCC/C=C\C/C=C\C/C=C\C/C=C\CCCC(=O)O [AA, arachidonic acid] | favored the expansion of PMN-MDSC | suppressed antigen specific T cell responses | increased expression of nox2 | higher production of PGE2 |  |  |  |  | 
GM-CSF: cytokine that activates STAT5; plays a critical role in myelopoiesis and expansion of MDSC |  |  |  |  | up-regulation of FATP2 | dose-dependent activation of STAT5 | failed to increase the expression of FATP2 | up-regulated | up-regulated
